Where two headings read alike, the source gives them in different places.
Columns and labels:
MCF-7 = test: MTT antiproliferative activity assay; type: cell-based; details: Homo sapiens, MCF7, 48 hr
Experimental: (§1) The MTT assay was done by seeding 5.0×10^3 human cancer cells or normal cells per well in 96-well plates ([34]-[36]). Following overnight incubation of the cells in 5% CO2 at 37 °C, culture medium of each well was exchanged with medium having reference anti-cancer agent CA-4 as well as different concentrations of synthesized compounds and RPMI (no drug) negative control and cells were incubated 48 hr. Then MTT solution (25 μl, 4 mg ml ^-1) was added to each well and the cells were incubated at 37 °C (for 3 hr). Finally, formazan crystals were dissolved in DMSO (100 μl) and plates were read in a plate reader (Synergy H4, USA) at 540 nm. The cytotoxic activity of the synthesized compounds was evaluated against different human cancer cell lines including […]-7 and MCF-7/MX, and normal cells by MTT assay. Combretastatin A-4 (CA-4) was used as the positive control.

MCF-7/MX = test: MTT antiproliferative activity assay; type: cell-based; details: Homo sapiens, MCF7/MX, read-out: IC50 MCF-7/MX
Experimental: as §1

A2780 = test: MTT antiproliferative activity assay; type: cell-based; details: Homo sapiens, 48 hr
Experimental: as §1

A2780/RCIS = test: MTT antiproliferative activity assay; type: cell-based; details: Homo sapiens, read-out: IC50 A2780/RCIS
Experimental: as §1

HUVEC = test: MTT assay on normal cells; type: cell-based; details: Homo sapiens, 48 hr
Experimental: as §1

MCF-7 cancer cells = test: Cell cycle analysis by flow cytometry (PI); type: cell-based, human; details: 48 hr
Description: (§2) Flow cytometry with propidium iodide (PI) was used to analyze the cell numbers in the cell cycle phases. […] Flowjo software 7.6 was used to analyze the data regarding the cell numbers in different phases of the cell cycle.
(§3) Tubulin inhibitors arrest cell cycle at the G2/M phase in cancer cells owing to destruction of the microtubular cytoskeleton. To get more understanding of the mechanism of action, the effects of compounds 7f and 7e on the cell cycle were examined by ﬂow cytometry in four human cancer cell lines (MCF-7, MCF-7/MX, A2780, and A2780/RCIS). […] When A2780 cancer cells were treated with 7f and 7e for 48 hr, the percentage of cells in the G2/M phase was 15.70% (7f, 1 μM), 17.74% (7f, 10 μM), 23.30% (7e, 5μM), and 4.15% (7e, 15μM) compared with the negative control (4.84%). Moreover, the percentage of A2780 cancer cells in the subG1 phase was 18.58% (7f, 10 μM) and 68.16% (7e, 15 μM).

A2780 cancer cells = test: Cell cycle analysis by flow cytometry (PI); type: cell-based, human; details: 48 hr
Description: as §2, §3

A2780/RCIS cancer cells = test: Cell cycle analysis by flow cytometry (PI); type: cell-based, human; details: 48 hr
Description: as §2, §3

MCF-7/MX cancer cells = test: Cell cycle analysis by flow cytometry (PI); type: cell-based, human; details: 48 hr
Description: as §2, §3

tubulin = molecular target: T1, tubulin (Sus scrofa, UniProt P02550+P02554); test: In vitro tubulin polymerization assay (fluorescence kit); type: biochemical; details: compound 20 µM; CA-4 5 µM
T1 construct: purchased cytoskeleton BK011P
Experimental: A commercial kit (cytoskeleton, cat. #BK011P) was used to evaluate the tubulin polymerization inhibition activity of compounds ([37]). Briefly, tubulin protein was added to tubulin buffer (80 mM PIPES, 2 mM MgCl2, 0.5 mM EGTA, 1 mM GTP, […], PH 6.9) and the acquired mixture was added to wells of a 96-well plate comprising the cytotoxic compounds or vehicle. Tubulin polymerization was observed by detecting the fluorescence augmentation due to the addition of a fluorescence reporter into microtubules as polymerization occurred. Polymerization was measured by excitation at 360 nm and emission at 420 nm for 1 hr at 1 min intervals in a plate reader (Synergy H4, USA). CA-4 (5 μM) and paclitaxel (3 μM) were used as positive destabilizing and positive stabilizing controls, respectively.
In order to check if the cytotoxic activity of our quinolines was correlated to their ability to inhibit tubulin, compounds 7e and 7f and CA4 (polymerization suppressor) and paclitaxel (polymerization promoter) were assessed for their activity in a microtubule polymerization assay.

[1] = tested on: A2780, A2780/RCIS, MCF-7 and MCF-7/MX; test: MTT assay, statements over all four cancer cell lines; type: cell-based; details: Homo sapiens, range over four cell lines, read-out: IC50 values range against all four human cancer cells
Experimental: as §1

A2780 cells = test: Apoptosis assay (Annexin V/PI staining); type: cell-based, human; details: 24 hr
Experimental: A2780 cells ([…]) were seeded in six-well plates and incubated overnight. Then the medium was replaced with a complete medium containing compound 7e (3 and 15 µM concentrations). After 24 hr incubation, the cells were […] and washed with PBS and incubated with buffer including 10 mM HEPES, 140 mM NaCl, and 2.5 mM CaCl2 (pH 7.4) and also PI and annexin V-FITC at room temperature (20 min) ([38]). The samples were analyzed using a flow cytometer (Beckman Coulter), and the results were assessed using the Flowjo software.
Then, to investigate the mode of cell death caused by 7e, flow cytometry was done using propidium iodide (PI) ([19]), which only colors DNA and only enter dead cells, and Annexin-V (the fluorescence probe), which binds to the early apoptotic cells selectively ([20]).

T1 sequence (P02550 whole entry): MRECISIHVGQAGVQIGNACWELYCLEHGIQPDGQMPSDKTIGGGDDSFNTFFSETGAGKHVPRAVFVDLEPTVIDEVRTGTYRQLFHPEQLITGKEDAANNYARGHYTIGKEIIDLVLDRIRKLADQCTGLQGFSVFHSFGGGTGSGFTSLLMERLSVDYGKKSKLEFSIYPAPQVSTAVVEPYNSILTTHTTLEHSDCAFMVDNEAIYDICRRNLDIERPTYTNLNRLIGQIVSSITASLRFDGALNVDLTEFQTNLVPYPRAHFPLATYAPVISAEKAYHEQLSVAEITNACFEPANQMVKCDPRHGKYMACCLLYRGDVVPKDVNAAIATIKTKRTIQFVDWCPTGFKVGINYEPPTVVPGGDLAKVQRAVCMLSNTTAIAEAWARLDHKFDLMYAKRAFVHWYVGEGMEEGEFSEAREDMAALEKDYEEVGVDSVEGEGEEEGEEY
T1 sequence (P02554 whole entry): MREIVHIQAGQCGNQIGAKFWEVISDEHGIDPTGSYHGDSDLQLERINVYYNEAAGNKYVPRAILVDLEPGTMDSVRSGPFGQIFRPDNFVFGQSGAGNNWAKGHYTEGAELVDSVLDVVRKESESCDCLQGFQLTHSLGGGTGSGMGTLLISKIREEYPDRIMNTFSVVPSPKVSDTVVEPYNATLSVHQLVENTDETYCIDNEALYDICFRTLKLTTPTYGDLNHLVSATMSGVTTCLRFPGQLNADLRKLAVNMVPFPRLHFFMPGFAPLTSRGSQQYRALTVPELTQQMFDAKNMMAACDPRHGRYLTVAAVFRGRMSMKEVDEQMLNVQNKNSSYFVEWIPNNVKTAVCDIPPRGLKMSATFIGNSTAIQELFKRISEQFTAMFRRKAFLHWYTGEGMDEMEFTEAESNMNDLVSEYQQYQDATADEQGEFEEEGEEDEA

Question: With COc1ccc(/C=C\c2cc(OC)c(OC)c(OC)c2)cc1O [CA-4, Combretastatin A-4, reference compound] as the molecule, how does the IC50 (MCF-7) read?
Answer: 0.438 ± 0.15 µM

Question: And the IC50 (MCF-7/MX; 48 h)?
Answer: 1.49 ± 0.27 µM

Question: And the IC50 (A2780)?
Answer: 0.249 ± 0.091 µM

Question: And the IC50 (A2780/RCIS; A2780, 48 h)?
Answer: 0.229 ± 0.11 µM

Question: What about the IC50 (HUVEC) of the same molecule?
Answer: 0.565 ± 0.26 µM

Question: Which results are given for COc1ccc(Nc2cc(C)nc3cc(OC)c(OC)c(OC)c23)cc1 [Compound 7a, 5,6,7-Trimethoxy-N-(4-methoxyphenyl)-2-methylquinolin-4-amine]?
Answer: melting point: 191 to 194 °C; IC50 (MCF-7): 55.3 ± 5.37 µM; IC50 (MCF-7/MX; MTT, 48 hr): 65.9 ± 4.42 µM; IC50 (A2780): 16.4 ± 2.13 µM; IC50 (A2780/RCIS; A2780, MTT, 48 hr): 29.9 ± 2.87 µM; IC50 (HUVEC): 55.9 ± 3.87 µM

Question: Which melting point does the source give for COc1ccc(Nc2cc(C)nc3cc(OC)c(OC)c(OC)c23)cc1OC [Compound 7b, N-(3,4-dimethoxyphenyl)-5,6,7-trimethoxy-2-methylquinolin-4-amine] here?
Answer: 182 to 185 °C

Question: And the IC50 (MCF-7)?
Answer: 63.7 ± 4.35 µM

Question: And the IC50 (MCF-7/MX; MTT, 48 hr)?
Answer: 62.8 ± 5.27 µM

Question: What about the IC50 (A2780) of the same molecule?
Answer: 27.1 ± 3.25 µM

Question: What about the IC50 (A2780/RCIS; A2780, MTT, 48 hr) of the same molecule?
Answer: 51.5 ± 4.86 µM

Question: And the IC50 (HUVEC)?
Answer: > 100 µM

Question: With COc1cc(Nc2cc(C)nc3cc(OC)c(OC)c(OC)c23)cc(OC)c1OC [Compound 7c, 5,6,7-Trimethoxy - 2-methyl - -N-(3,4,5-methoxyphenyl) quinolin-4-amine] as the molecule, how does the melting point read?
Answer: 175 to 178 °C

Question: And the IC50 (MCF-7)?
Answer: > 100 µM

Question: What about the IC50 (MCF-7/MX; MTT, 48 hr) of the same molecule?
Answer: 69.8 ± 4.85 µM

Question: What about the IC50 (A2780) of the same molecule?
Answer: 80.2 ± 5.23 µM

Question: And the IC50 (A2780/RCIS; A2780, MTT, 48 hr)?
Answer: > 100 µM

Question: And the IC50 (HUVEC)?
Answer: > 100 µM

Question: With COc1ccc(Nc2cc(C)nc3cc(OC)c(OC)c(OC)c23)cc1O [Compound 7d, 2-Methoxy-5-((5,6,7-trimethoxy-2-methylquinolin-4-yl)amino)phenol] as the molecule, how does the melting point read?
Answer: 182 to 184 °C

Question: What about the IC50 (MCF-7) of the same molecule?
Answer: 53.6 ± 3.66 µM

Question: What about the IC50 (MCF-7/MX; MTT, 48 hr) of the same molecule?
Answer: 78.2 ± 5.37 µM

Question: And the IC50 (A2780)?
Answer: 29.6 ± 2.98 µM

Question: What about the IC50 (A2780/RCIS; A2780, MTT, 48 hr) of the same molecule?
Answer: 44.7 ± 2.76 µM

Question: What about the IC50 (HUVEC) of the same molecule?
Answer: 62.7 ± 5.42 µM

Question: With COc1cc2nc(C)cc(Nc3ccc(C(=O)c4ccccc4)cc3)c2c(OC)c1OC [Compound 7e] as the molecule, how does the G2/M (MCF-7 cancer cells; MCF-7, 20 μM) read?
Answer: 25.91%

Question: And the G2/M (MCF-7 cancer cells; MCF-7, 30 μM)?
Answer: 34.45%

Question: And the G2/M (A2780 cancer cells; A2780, 5 μM)?
Answer: 23.30%

Question: And the G2/M (A2780 cancer cells; A2780, 15 μM)?
Answer: 4.15%

Question: What about the SubG1 (A2780 cancer cells; A2780, 15 μM) of the same molecule?
Answer: 68.16%

Question: And the G2/M (A2780/RCIS cancer cells; 1 μM)?
Answer: 24.91%

Question: And the G2/M (A2780/RCIS cancer cells; 5 μM)?
Answer: 25.93%

Question: And the G2/M (MCF-7/MX cancer cells; 1 μM)?
Answer: 25.41%

Question: What about the G2/M (MCF-7/MX cancer cells; 10 μM) of the same molecule?
Answer: 37.85%

Question: And the IC50 (MCF-7)?
Answer: 33 ± 2.51 µM

Question: And the IC50 (MCF-7/MX; MTT, 48 hr)?
Answer: 10.9 ± 1.28 µM

Question: And the IC50 (A2780)?
Answer: 11.3 ± 1.47 µM

Question: And the IC50 (A2780/RCIS; A2780, MTT, 48 hr)?
Answer: 6.66 ± 1.35 µM

Question: And the “tubulin polymerization inhibition” value (tubulin)?
Answer: inhibited tubulin polymerization in a way similar to that of CA-4

Question: What about the IC50 (HUVEC) of the same molecule?
Answer: > 100 µM

Question: What about the IC50 [1] of the same molecule?
Answer: 5.02 to 35.8 µM

Question: And the “total apoptotic cells including early and late apoptotic cells” value (A2780 cells; A2780, 3 µM)?
Answer: 8.02%

Question: And the “total apoptotic cells including early and late apoptotic cells” value (A2780 cells; A2780, 15 µM)?
Answer: 28.57%

Question: Which melting point does the source give for COc1cc2nc(C)cc(Nc3ccc(Oc4ccccc4)cc3)c2c(OC)c1OC [Compound 7f, 5,6,7-Trimethoxy-2-methyl-N-(4-phenoxyphenyl)quinolin-4-amine] here?
Answer: 192 to 195 °C

Question: And the G2/M (MCF-7 cancer cells; MCF-7, 1 μM)?
Answer: 19.01%

Question: And the G2/M (MCF-7 cancer cells; MCF-7, 10 μM)?
Answer: 24.01%

Question: What about the G2/M (A2780 cancer cells; A2780, 1 μM) of the same molecule?
Answer: 15.70%

Question: What about the G2/M (A2780 cancer cells; A2780, 10 μM) of the same molecule?
Answer: 17.74%

Question: What about the SubG1 (A2780 cancer cells; A2780, 10 μM) of the same molecule?
Answer: 18.58%

Question: And the G2/M (A2780/RCIS cancer cells; 1 μM)?
Answer: 20.68%

Question: What about the G2/M (A2780/RCIS cancer cells; 5 μM) of the same molecule?
Answer: 19.38%

Question: What about the G2/M (MCF-7/MX cancer cells; 10 μM) of the same molecule?
Answer: 23.73%

Question: And the G2/M (MCF-7/MX cancer cells; 20 μM)?
Answer: 29.37%

Question: And the IC50 (MCF-7)?
Answer: 10.1 ± 1.63 µM

Question: What about the IC50 (MCF-7/MX; MTT, 48 hr) of the same molecule?
Answer: 9.04 ± 1.2 µM

Question: And the IC50 (A2780)?
Answer: 8.43 ± 1.85 µM

Question: And the IC50 (A2780/RCIS; A2780, MTT, 48 hr)?
Answer: 5.02 ± 1.14 µM

Question: What about the “tubulin polymerization inhibition” value (tubulin) of the same molecule?
Answer: inhibited tubulin polymerization in a way similar to that of CA-4

Question: And the IC50 (HUVEC)?
Answer: 8.9 ± 1.26 µM

Question: What about the IC50 [1] of the same molecule?
Answer: 5.02 to 35.8 µM

From paper PMC7811808, “Design, synthesis, and biological evaluation of novel 5,6,7-trimethoxy quinolines as potential anticancer agents and tubulin polymerization inhibitors” (Iranian Journal of Basic Medical Sciences, 2020)
